Assay results: ChEMBL document CHEMBL5096176, “AAA ATPases as therapeutic targets: Structure, functions, and small-molecule inhibitors” (Eur J Med Chem, 2021)

Legend:
[1] = Selectivity index, ratio of CC50 for MDCK cells to EC50 for Oseltamivir-resisitant Influenza A virus (A/North Carolina/39/2009 (H1N1)) infected in MDCK cells; type: toxicity, cell-based; conditions: dog, read-out: Ratio CC50/EC50
[2] = test system: Cytomegalovirus; assay: Antiviral activity against human Cytomegalovirus infected in human fibroblast cells assessed as viral growth inhibition preincubated for 24 hrs with compound followed by viral infection by plaque assay; type: functional, organism-based; conditions: Human betaherpesvirus 5, Fibroblast
[3] = test system: Influenza A virus; assay: Antiviral activity against Influenza A virus (A/Texas/04/2009 (H1N1)) infected in MDCK cells over expressing ST6Gal I assessed as inhibition of viral replication by plaque assay; type: functional, organism-based
[4] = test system: Influenza A virus; assay: Antiviral activity against Influenza A virus (A/Denmark/528/2009 (H1N1)) infected in MDCK cells over expressing ST6Gal I assessed as inhibition of viral replication by plaque assay; type: functional, organism-based
[5] = Selectivity index, ratio of CC50 for MDCK cells to EC50 for Influenza A virus (A/Texas/04/2009 (H1N1)) infected in MDCK cells; type: toxicity, cell-based; conditions: dog, read-out: Ratio CC50/EC50
[6] = Selectivity index, ratio of CC50 for MDCK cells to EC50 for Influenza A virus (A/Denmark/528/2009 (H1N1)) infected in MDCK cells; type: toxicity, cell-based; conditions: dog, read-out: Ratio CC50/EC50
[7] = test system: Huh-7; assay: Anticancer activity against human Huh-7 cells assessed as inhibition of cell proliferation incubated for 4 days by MTS assay; type: functional, cell-based; conditions: Huh-7, 96 h
[8] = test system: Hep 3B2; assay: Anticancer activity against human Hep3B cells assessed as inhibition of cell proliferation incubated for 4 days by MTS assay; type: functional, cell-based; conditions: 96 h
[9] = test system: HeLa; assay: Anticancer activity against human HeLa cells assessed as cell growth inhibition; type: functional, cell-based
[10] = test system: Schizosaccharomyces pombe; assay: Antifungal activity against Schizosaccharomyces pombe assessed as fungal growth inhibition incubated for 18 hrs by absorbance based assay; type: functional
[11] = target: T1, Spastin (Homo sapiens, UniProt Q9UBP0); assay: Inhibition of human Spastin in presence of ATP
T1 sequence (Q9UBP0 whole entry): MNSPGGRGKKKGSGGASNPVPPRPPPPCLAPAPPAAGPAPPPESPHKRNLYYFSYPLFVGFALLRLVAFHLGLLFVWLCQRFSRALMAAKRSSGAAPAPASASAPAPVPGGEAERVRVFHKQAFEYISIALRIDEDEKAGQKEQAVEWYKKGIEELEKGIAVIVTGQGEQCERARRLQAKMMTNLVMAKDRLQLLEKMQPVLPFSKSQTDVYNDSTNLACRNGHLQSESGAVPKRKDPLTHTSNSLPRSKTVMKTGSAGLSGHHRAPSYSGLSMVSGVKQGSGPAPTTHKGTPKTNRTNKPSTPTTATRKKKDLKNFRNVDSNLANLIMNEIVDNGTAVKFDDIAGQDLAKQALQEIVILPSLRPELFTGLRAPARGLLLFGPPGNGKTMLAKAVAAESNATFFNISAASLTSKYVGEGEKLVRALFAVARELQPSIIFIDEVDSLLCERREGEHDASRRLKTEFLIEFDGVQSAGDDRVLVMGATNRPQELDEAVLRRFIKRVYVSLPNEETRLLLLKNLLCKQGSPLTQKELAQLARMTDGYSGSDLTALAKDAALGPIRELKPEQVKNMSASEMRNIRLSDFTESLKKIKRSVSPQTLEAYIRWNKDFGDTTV

[12] = target: T2, Spastin (Drosophila melanogaster, UniProt Q8I0P1); assay: Inhibition of wild-type Drosophila melanogaster Spastin (209 to 758 residues) in presence of ATP by NADH-coupled fluorescence assay
T2 sequence (Q8I0P1 whole entry): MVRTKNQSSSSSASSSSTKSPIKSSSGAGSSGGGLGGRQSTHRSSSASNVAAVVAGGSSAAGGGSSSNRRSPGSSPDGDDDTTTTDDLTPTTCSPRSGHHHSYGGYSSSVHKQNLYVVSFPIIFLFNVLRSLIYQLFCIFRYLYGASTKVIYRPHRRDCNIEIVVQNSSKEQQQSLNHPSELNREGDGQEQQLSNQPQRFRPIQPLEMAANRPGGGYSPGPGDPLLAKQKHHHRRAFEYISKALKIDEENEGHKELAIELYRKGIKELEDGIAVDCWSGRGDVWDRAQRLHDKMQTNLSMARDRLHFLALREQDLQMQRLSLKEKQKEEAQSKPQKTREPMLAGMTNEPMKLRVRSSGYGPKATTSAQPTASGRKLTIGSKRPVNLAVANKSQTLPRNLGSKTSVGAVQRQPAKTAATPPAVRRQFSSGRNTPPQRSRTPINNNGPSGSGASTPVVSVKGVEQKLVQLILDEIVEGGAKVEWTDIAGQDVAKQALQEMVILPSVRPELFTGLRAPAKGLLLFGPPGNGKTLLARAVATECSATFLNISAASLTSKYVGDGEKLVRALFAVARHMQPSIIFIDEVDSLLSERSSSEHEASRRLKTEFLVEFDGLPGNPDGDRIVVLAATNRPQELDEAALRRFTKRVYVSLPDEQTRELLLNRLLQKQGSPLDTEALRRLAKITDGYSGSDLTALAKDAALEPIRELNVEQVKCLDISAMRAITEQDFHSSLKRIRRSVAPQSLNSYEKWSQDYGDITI

[13] = Inhibition of Drosophila melanogaster Spastin N527C mutant (209 to 758 residues) in presence of ATP by NADH-coupled fluorescence assay
[14] = target: T3, Transitional endoplasmic reticulum ATPase (Homo sapiens, UniProt P55072); assay: Inhibition of p97 (unknown origin) in presence of ATP by Biomol Green Reagent based assay
T3 sequence (P55072 whole entry): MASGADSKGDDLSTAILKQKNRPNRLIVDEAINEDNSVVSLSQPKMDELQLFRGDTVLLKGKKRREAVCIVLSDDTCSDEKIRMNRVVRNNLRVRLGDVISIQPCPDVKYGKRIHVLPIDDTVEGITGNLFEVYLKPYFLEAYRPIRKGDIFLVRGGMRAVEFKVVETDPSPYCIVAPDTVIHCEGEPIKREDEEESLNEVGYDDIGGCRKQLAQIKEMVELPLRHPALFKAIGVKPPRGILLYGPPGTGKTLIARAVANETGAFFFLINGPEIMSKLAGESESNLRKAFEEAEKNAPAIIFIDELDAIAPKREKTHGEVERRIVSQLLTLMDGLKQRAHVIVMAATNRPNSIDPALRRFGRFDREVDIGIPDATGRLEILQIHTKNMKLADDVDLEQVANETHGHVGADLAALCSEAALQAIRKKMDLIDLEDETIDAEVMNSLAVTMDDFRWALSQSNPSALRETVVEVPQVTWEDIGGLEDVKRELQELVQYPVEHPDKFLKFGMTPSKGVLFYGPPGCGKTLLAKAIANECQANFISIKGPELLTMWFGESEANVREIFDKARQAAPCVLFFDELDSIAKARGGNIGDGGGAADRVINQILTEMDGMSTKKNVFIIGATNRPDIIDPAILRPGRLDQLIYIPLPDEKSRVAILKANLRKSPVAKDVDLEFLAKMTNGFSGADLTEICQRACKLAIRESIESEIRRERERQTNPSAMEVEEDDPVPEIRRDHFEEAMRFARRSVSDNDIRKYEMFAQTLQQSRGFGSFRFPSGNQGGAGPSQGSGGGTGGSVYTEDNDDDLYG

[15] = target: T3, Transitional endoplasmic reticulum ATPase; assay: Inhibition of p97 (unknown origin) incubated for 15 mins in presence of ATP by ADP Glo assay

Cc1cc(OCc2nnc(SC3CCCC3)n2-c2cccnc2)ccc1-c1ccc(S(C)(=O)=O)cc1
selectivity ratio [1]: 50
IC50 [2]: 130 nM
EC50 [3]: 30 nM
EC50 [4]: 30 nM
selectivity ratio [5]: 50
selectivity ratio [6]: 50

O=c1[nH]c2ccccc2n1C1CCN(Cc2ccc(-c3nc4cc5[nH]cnc5cc4nc3-c3ccccc3)cc2)CC1
IC50 [7]: 4000 nM
IC50 [8]: 3500 nM

O=C(CCl)Nc1cccc(NC2=NS(=O)(=O)c3ccccc32)c1
IC50 [9]: 3000 nM

C=C(C)CSc1nnc2c(n1)[nH]c1cc(Br)ccc12
GI50 [10]: 14 nM

C=C(C)CSc1nnc2c(n1)[nH]c1ccccc12
GI50 [10]: 136 nM

CC(C)[C@@H]1CN(c2nc(Nc3cc(C(C)(C)C)[nH]n3)c3cc[nH]c3n2)CCN1
IC50 [11]: 99 nM

C[C@@H]1CNCCN1c1nc(Nc2cc(C(C)(C)C)[nH]n2)c2cccc(F)c2n1
IC50 [12]: 4840 nM
IC50 [13]: 230 nM

C[C@@H]1CNCCN1c1nc(Nc2cc(C(C)(C)C)[nH]n2)c2ccccc2n1
IC50 [11]: 4400 nM

Cc1cc(OCc2cnc(SC3CCCC3)n2-c2cccnc2)ccc1C#CCCNC(C)C
IC50 [14]: 7 nM

Nc1nc(O)c2ncn(COC(CO)CO)c2n1 [GANCICLOVIR]
IC50 [15]: 1300 nM

CC(=O)c1c(O)c(C)c(O)c(Cc2c(O)c3c(c(C(=O)/C=C/c4ccccc4)c2O)OC(C)(C)C=C3)c1O [ROTTLERIN]
IC50 [7]: 570 nM
IC50 [8]: 250 nM
